Where only a bound is given, the exact number is not on record here.

This assay addresses T1, human ADRA2B receptor (Homo sapiens, UniProt P18089).
T1 construct: expressed in transfected cells
T1 sequence (P18089 1-450): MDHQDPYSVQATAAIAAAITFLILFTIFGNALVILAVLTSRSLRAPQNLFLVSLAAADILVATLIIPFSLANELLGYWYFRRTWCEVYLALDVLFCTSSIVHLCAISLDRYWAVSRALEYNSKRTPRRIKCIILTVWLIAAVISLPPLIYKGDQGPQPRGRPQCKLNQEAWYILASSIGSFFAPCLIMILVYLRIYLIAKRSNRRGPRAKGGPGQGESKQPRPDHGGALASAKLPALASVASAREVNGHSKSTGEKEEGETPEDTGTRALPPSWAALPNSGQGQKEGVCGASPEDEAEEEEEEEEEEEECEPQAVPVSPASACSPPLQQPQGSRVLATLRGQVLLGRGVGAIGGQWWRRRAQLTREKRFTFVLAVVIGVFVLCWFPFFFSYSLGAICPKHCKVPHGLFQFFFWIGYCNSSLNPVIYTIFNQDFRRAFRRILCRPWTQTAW
Nature of the assay: ADRA2B arrestin agonist assay. It is filed as cell-based. The following applies: CHO-K1 cells stably expressing human ADRA2B; read-out: Beta-Arrestin - Human Alpha2B EC50. The procedure: ADRA2A and ADRA2B Arrestin Agonist Assay Method
The arrestin assay uses frozen CHO-K1 cell lines stably expressing human ADRA2A and ADRA2B receptors. Cells are frozen following normal cell freezing protocols. Briefly, cells are washed with PBS and then dissociated with 0.25% trypsin. Dissociated cells are quenched in full media and then collected by centrifugation at 290×g for 5 minutes. […] Cells are stored at −80° C. (or in liquid N2 if stored >6 months) until the day of the assay.
On the day before the assay, frozen cells are thawed in a 37° C. water bath, brought up in 20 mL of full media, and collected via centrifugation at 290×g for 5 minutes. […] Cells are incubated overnight in a 37° C., 5% CO2 cell incubator.
On the day of the assay, agonists are diluted in Opti-MEM to 3.5x of the final assay concentration. 4 μL of agonists are added to the cells and incubated for 2 hours at 37° C. in a 5% CO2 cell incubator. 6 μL of arrestin detection reagents are dispensed onto the cells and the plates are incubated for 2 hours at room temperature. […] Plates are read on an Envision luminescence plate reader.

What is called EC50 is the concentration that produces a half-maximal response. `COCc1cc(CC(c2c[nH]cn2)c2cccc(C)c2C)ccn1` (centres unmarked) [Compound 295, 4-{2-[2-(methoxymethyl)-4-pyridyl]-1-(2,3-xylyl)ethyl}imidazole]: the EC50 is less than 10 nM. Regarding `Cc1cc(CC(c2c[nH]cn2)c2cccc(C)c2C)c(F)cn1` (centres unmarked) [Compound 315, 4-[2-(5-fluoro-2-methyl-4-pyridyl)-1-(2,3-xylyl)ethyl]imidazole], the concentration giving a half-maximal response (EC50) was less than 10 nM. To `Cc1cccc(C(Cc2ccncc2Cl)c2c[nH]cn2)c1C` (centres unmarked) [Compound 396, 4-[2-(3-chloro-4-pyridyl)-1-(2,3-xylyl)ethyl]imidazole] belongs less than 10 nM; to `Cc1cc(CC(c2c[nH]cn2)c2cccc(C)c2C)nc(C(C)(C)F)n1` (centres unmarked) [Compound 206, 2-(1-fluoro-1-methylethyl)-4-[2-(4 imidazolyl)-2-(2,3-xylyl)ethyl]-6-methylpyrimidine], less than 10 nM; to `Cc1nccc(C[C@H](c2c[nH]cn2)c2cccc(C)c2F)n1` [Compound 142, 4-[(S)-2-(2-fluoro-3-tolyl)-2-(4-imidazolyl)ethyl]-2-methylpyrimidine], greater than 500 nM.

For `Cc1cccc(C(Cc2cnc3cnccn23)c2c[nH]cn2)c1C` (centres unmarked) [Compound 285, 3-[2-(4-imidazolyl)-2-(2,3-xylyl)ethyl]-1,3a,6-triazaindene], the EC50 lay in the range of 10 to 50 nM. As for `c1cc2c(c(C(Cc3ccn4ccnc4c3)c3c[nH]cn3)c1)OCC2` (centres unmarked) [Compound 398, 4-[2-(1,3a-diaza-6-indenyl)-1-(2,3-dihydro-1-benzofuran-7-yl)ethyl]imidazole], the EC50 was less than 10 nM. As for `COc1c(C)cccc1C(Cc1cccc(C)n1)c1c[nH]cn1` (centres unmarked) [Compound 389, 4-[1-(2-methoxy-3-tolyl)-2-(6-methyl-2-pyridyl)ethyl]imida-zole-formic acid (1/1)], the EC50 is 50 to 500 nM. Consider `Cc1cccc([C@@H](Cc2ccnc(CF)n2)c2c[nH]cn2)c1C` [Compound 153, 4-[(R)-2-(4-imidazolyl)-2-(2,3-xylyl)ethyl]-2-(fluoromethyl) pyrimidine], for which the EC50 was less than 10 nM.

As for `Cn1ncc2c(C(Cc3cocn3)c3c[nH]cn3)cccc21` (centres unmarked) [Compound 378, 4-[1-(4-imidazolyl)-2-(1,3-oxazol-4-yl)ethyl]-1-methyl-1H-indazole], the EC50 is 50 to 500 nM.

Regarding `c1cc2c(c(C(Cc3cnco3)c3c[nH]cn3)c1)OCC2` (centres unmarked) [Compound 390, 5-[2-(2,3-dihydro-1-benzofuran-7-yl)-2-(4-imidazolyl)ethyl] 1,3-oxazole], the EC50 fell in the range of 10 to 50 nM.

As for `Cc1nccc(CC(c2ccc3cccnc3c2)c2c[nH]cn2)n1` (centres unmarked) [Compound 161, 4-[2-(4-imidazolyl)-2-(7-quinolyl)ethyl]-2-methylpyrimidine], the EC50 was greater than 500 nM.

Regarding `Cc1cccc(C(Cc2ccnc(CO)n2)c2c[nH]cn2)c1F` (centres unmarked) [Compound 156, {4-[2-(2-fluoro-3-tolyl)-2-(4-imidazolyl)ethyl]-2-pyrimidinyl}methanol], the EC50 was less than 10 nM. `COC(C)(C)c1nccc(CC(c2c[nH]cn2)c2cccc(C)c2C)n1` (centres unmarked) [Compound 209, 4-[2-(4-imidazolyl)-2-(2,3-xylyl)ethyl]-2-(1-methoxy-1-methylethyl)pyrimidine]: the concentration giving a half-maximal response (EC50) is less than 10 nM. To `c1cc2c(c([C@H](Cc3cc[nH]n3)c3c[nH]cn3)c1)OCC2` [Compound 238, 3-[(S)-2-(2,3-dihydro-1-benzofuran-7-yl)-2-(4-imidazolyl)ethyl]pyrazole] belongs 10 to 50 nM; to `COc1ccc(CC(c2c[nH]cn2)c2cccc(C)c2C)cn1` (centres unmarked) [Compound 273, 4-[2-(6-methoxy-3-pyridyl)-1-(2,3-xylyl)ethyl]imidazole], less than 10 nM; to `Cc1cccc([C@@H](Cc2cnco2)c2c[nH]cn2)c1F` [Compound 369, 5-[(R)-2-(2-fluoro-3-tolyl)-2-(4-imidazolyl)ethyl]-1,3-oxazole], greater than 500 nM. With `COc1nccc(C[C@@H](c2c[nH]cn2)c2cccc(F)c2OC)n1` [Compound 182, 4-[(R)-2-(3-fluoro-2-methoxyphenyl)-2-(4-imidazolyl)ethyl]-2-methoxypyrimidine], the 50% effective concentration (EC50) lay in the range of 10 to 50 nM. As to `Cn1ccc2cccc(C(Cc3cc[nH]n3)c3c[nH]cn3)c21` (centres unmarked) [Compound 253, 3-[2-(4-imidazolyl)-2-(1-methyl-7-indolyl)ethyl]pyrazole], the EC50 was greater than 500 nM. As for `Cc1cccc(C(Cc2ccsn2)c2c[nH]cn2)c1C` (centres unmarked) [Compound 245, 3-[2-(4-imidazolyl)-2-(2,3-xylyl)ethyl]isothiazole], the EC50 was less than 10 nM. In the case of `COc1nccc(CC(c2c[nH]cn2)c2cccc(C(F)(F)F)c2C)n1` (centres unmarked) [Compound 202, 4-{2-(4-imidazolyl)-2 [3-(trifluoromethyl)-2-tolyl]ethyl}-2-methoxypyrimidine], the EC50 is less than 10 nM.

On to `Cc1cccc(C[C@@H](c2c[nH]cn2)c2cccc3c2OCC3)n1` [Compound 265, 4-[(R)-1-(2,3-dihydro-1-benzofuran-7-yl)-2-(6-methyl-2-pyridyl)ethyl]imida-zole], for which the concentration giving a half-maximal response (EC50) is 10 to 50 nM. Turning to `Cc1ncncc1CC(c1c[nH]cn1)c1cccc2c1OCC2` (centres unmarked) [Compound 268, 5-[2-(2,3-dihydro-1-benzofuran-7-yl)-2-(4-imidazolyl)ethyl]-4-methylpyrimidine], the EC50 lay within 50 to 500 nM. Consider `CCc1cccc(C(Cc2ccn3ccnc3c2)c2c[nH]cn2)c1O` (centres unmarked) [Compound 397, 2-[2-(1,3a-diaza-6-indenyl)-1-(4-imidazolyl)ethyl]-6-ethylphenol], for which the EC50 is greater than 500 nM. In the case of `COc1cc(CC(c2c[nH]cn2)c2cccc(C)c2C)ccn1` (centres unmarked) [Compound 274, 4-[2-(2-methoxy-4-pyridyl)-1-(2,3-xylyl)ethyl]imidazole], the EC50 was less than 10 nM. With `COc1c(C)cccc1C(Cc1cn(C)nn1)c1c[nH]cn1` (centres unmarked) [Compound 260, 4-[2-(4-imidazolyl)-2-(2-methoxy-3-tolyl)ethyl]-1-methyl-1H-1,2,3-triazole], the EC50 is 50 to 500 nM.

`Cc1cccc(C(Cc2ccnc(C(C)(C)O)n2)c2c[nH]cn2)c1C` (centres unmarked) [Compound 353, 2-{4-[2-(4-imidazolyl)-2-(2,3-xylyl)ethyl]-2-pyrimidinyl}-2 propanol]: the concentration giving a half-maximal response (EC50) was less than 10 nM. For `Cn1cc(CC(c2c[nH]cn2)c2cccc3c2OCC3)nn1` (centres unmarked) [Compound 258, 4-[2-(2,3-dihydro-1-benzofuran-7-yl)-2-(4-imidazolyl)ethyl] 1-methyl-1H-1,2,3-triazole], the EC50 lay within 10 to 50 nM.

As for `c1cc2c(c([C@H](Cc3cocn3)c3c[nH]cn3)c1)OCCO2` [Compound 384, 4-[(S)-2-(2,3-dihydro-1,4-benzodioxin-5-yl)-2-(4-imidazolyl)ethyl]-1,3-oxazole], the concentration for a half-maximal effect (EC50) was 10 to 50 nM. As to `Cc1nc(C[C@@H](c2c[nH]cn2)c2cccc(C)c2C)co1` [Compound 373, 4-[(R)-2-(4-imidazolyl)-2-(2,3-xylyl)ethyl]-2-methyl-1,3-oxazole], the EC50 fell in the range of 10 to 50 nM. With `Cc1cccc(C(Cc2ccc(C(=O)N(C)C)nc2)c2c[nH]cn2)c1C` (centres unmarked) [Compound 311, N,N-dimethyl-5-[2-(4-imidazolyl)-2-(2,3-xylyl)ethyl]-2-pyridinecarboxamide], the EC50 is less than 10 nM. Take `COc1ncc(CC(c2c[nH]cn2)c2cccc(C)c2C)cn1` (centres unmarked) [Compound 339, 5-[2-(4-imidazolyl)-2-(2,3-xylyl)ethyl]-2-methoxypyrimidine]: the EC50 lay within 50 to 500 nM.

These data come from US20260042769A1, “TRIARYL AGONISTS OF ALPHA-2 ADRENERGIC RECEPTORS” (ALCEPTOR THERAPEUTICS, INC., priority 2023, published 2026).
